In US20020137929A1, “1 - (3-heterocyclylphenyl) isothiourea, -isourea, -guanidine and -amidine herbicidal agents” (Intellectual Property Department, BASF Aktiengesellschaft, priority 1998, published 2002):

How the values were obtained:
AMBEL (Ragweed, Common) = assay: Postemergence herbicidal evaluation; assay type: in vivo, Ambrosia artemisifolia; details: postemergence
How it was run: (§1)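 Each compound, dispersed in an acetone/water mix (50/50) carrying 0.5% TWEEN 20, is nozzle-sprayed at 40 psi on approximately two-week-old seedlings at about 0.0156–0.500 kg/ha. Plants are assessed 4–5 weeks afterward on a 0–9 scale relative to control; duplicate tests are averaged.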

ZEAMX (Corn, Field) = assay: Preemergence herbicidal evaluation; assay type: in vivo, Zea mays; details: rated 4-5 weeks after treatment, rating scale 0-9
How it was run: (§2)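 Each species is sown separately in potting soil over roughly an inch of soil before any emergence. The soil surface then receives an aqueous acetone spray delivering about 0.0156 to 0.500 kg/ha of compound. After four to five weeks, injury is scored from 0 to 9 relative to a control.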

CASOB (Sicklepod) [1] = assay: Preemergence herbicidal evaluation; assay type: in vivo, Cassia obtusifolia; details: rated 4-5 weeks after treatment, rating scale 0-9
How it was run: as §2

[2] = tested on: GLXMAW (Soybean, Williams); assay: Postemergence herbicidal evaluation; assay type: in vivo, Glycine max, (L.) Merr. cv Williams; details: postemergence
How it was run: as §1

GALAP (Galium) [3] = assay: Postemergence herbicidal evaluation; assay type: in vivo, Galium aparine; details: postemergence
How it was run: as §1

[4] = tested on: SAGPY (Arrowhead (Pygmaea)); assay: Preemergence weed control under flooded paddy conditions; assay type: in vivo, Sagittaria pygmaea; details: rated 3-4 weeks after treatment
How it was run: (§3)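 Flooded-pot preemergence screen with silt loam and seeds in the upper 0.5 cm. Dose about 0.0313 to 0.500 kg/ha, delivered into flood water; visual 0-9 score after 3 to 4 weeks.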

[5] = tested on: CHEAL (Lambsquarters, Common); assay: Postemergence herbicidal evaluation; assay type: in vivo, Chenopodium album; details: postemergence
How it was run: as §1

CASOB (Sicklepod) [6] = assay: Postemergence herbicidal evaluation; assay type: in vivo, Cassia obtusifolia; details: postemergence
How it was run: as §1

ORYSAT (Rice, Tebonnet) = assay: Postemergence herbicidal evaluation; assay type: in vivo, Oryza sativa, (L.) Tebonnet; details: postemergence
How it was run: as §1

SETVI (Foxtail, Green) = assay: Postemergence herbicidal evaluation; assay type: in vivo, Setaria viridis; details: postemergence
How it was run: as §1

CYPSE (Flatsedge) = assay: Preemergence weed control under flooded paddy conditions; assay type: in vivo, Cyperus serotinus; details: rated 3-4 weeks after treatment
How it was run: as §3

ECHCG (Barnyardgrass) = assay: Postemergence herbicidal evaluation; assay type: in vivo, Echinochloa crus-galli; details: postemergence
How it was run: as §1

GALAP (Galium) [7] = assay: Preemergence herbicidal evaluation; assay type: in vivo, Galium aparine; details: rated 4-5 weeks after treatment, rating scale 0-9
How it was run: as §2

CYPIR (Rice Flatsedge) = assay: Preemergence weed control under flooded paddy conditions; assay type: in vivo, Cyperus iria; details: rated 3-4 weeks after treatment
How it was run: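 Herbicidal effect is scored visually on a 0-9 scale against an untreated control, three to four weeks after compounds are pipetted into the flood water (1.5 to 3 cm deep) over seeds planted in silt loam at 0.5 cm depth. Rates: about 0.0313 to 0.500 kg/ha.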

Cn1c(C(F)(F)F)cc(=O)n(-c2cc(N=C3SCC(=O)N3Cc3ccc(Br)cc3)c(Cl)cc2F)c1=O [Compound 148, 3-{5-{[3-(p-Bromobenzyl)-4-oxo-2-thiazolidinyl-idene]amino}-4-chloro-2-fluorophenyl}-1-methyl-6-(trifluoromethyl)-2,4(1H,3H)-pyrimidinedione]
7.0: herbicidal rating AMBEL (AMBEL (Ragweed, Common); rate 0.0313 kg/ha) | herbicidal rating CHEAL ([5]; rate 0.0313 kg/ha) | herbicidal rating CHEAL ([5]; rate 0.0625 kg/ha) | herbicidal effect rating, CYPIR (CYPIR (Rice Flatsedge); 0.2500 kg/ha)
9.0: herbicidal rating AMBEL (AMBEL (Ragweed, Common); rate 0.0156 kg/ha) | herbicidal rating AMBEL (AMBEL (Ragweed, Common); rate 0.0625 kg/ha)
6.5: herbicidal rating GLXMAW ([2]; rate 0.0625 kg/ha)
5.0: herbicidal rating GLXMAW ([2]; rate 0.0313 kg/ha) | herbicidal effect rating, CYPSE (CYPSE (Flatsedge); 0.2500 kg/ha)
2.0: herbicidal rating GALAP (GALAP (Galium) [3]; rate 0.0156 kg/ha) | herbicidal rating GALAP (GALAP (Galium) [3]; rate 0.0313 kg/ha) | herbicidal rating GALAP (GALAP (Galium) [3]; rate 0.0625 kg/ha) | herbicidal rating ORYSAT (ORYSAT (Rice, Tebonnet); rate 0.0156 kg/ha) | herbicidal rating SETVI (SETVI (Foxtail, Green); rate 0.0156 kg/ha) | herbicidal rating SETVI (SETVI (Foxtail, Green); rate 0.0313 kg/ha) | herbicidal rating ECHCG (ECHCG (Barnyardgrass); rate 0.0156 kg/ha)
0.0: Preemergence herbicidal rating ZEAMX (ZEAMX (Corn, Field); rate 0.0313 kg/ha) | Preemergence herbicidal rating ZEAMX (ZEAMX (Corn, Field); rate 0.0625 kg/ha) | Preemergence herbicidal rating ZEAMX (ZEAMX (Corn, Field); rate 0.1250 kg/ha) | Preemergence herbicidal rating CASOB (CASOB (Sicklepod) [1]; rate 0.0313 kg/ha) | Preemergence herbicidal rating CASOB (CASOB (Sicklepod) [1]; rate 0.0625 kg/ha) | Preemergence herbicidal rating CASOB (CASOB (Sicklepod) [1]; rate 0.1250 kg/ha) | Preemergence herbicidal rating CASOB (CASOB (Sicklepod) [1]; rate 0.2500 kg/ha) | herbicidal effect rating, SAGPY ([4]; 0.0313 kg/ha) | herbicidal effect rating, CYPSE (CYPSE (Flatsedge); 0.0313 kg/ha) | herbicidal effect rating, CYPSE (CYPSE (Flatsedge); 0.1250 kg/ha) | Preemergence herbicidal rating GALAP (GALAP (Galium) [7]; rate 0.0313 kg/ha) | Preemergence herbicidal rating GALAP (GALAP (Galium) [7]; rate 0.0625 kg/ha) | Preemergence herbicidal rating GALAP (GALAP (Galium) [7]; rate 0.1250 kg/ha) | Preemergence herbicidal rating GALAP (GALAP (Galium) [7]; rate 0.2500 kg/ha)
1.0: Preemergence herbicidal rating ZEAMX (ZEAMX (Corn, Field); rate 0.2500 kg/ha)
4.0: herbicidal effect rating, SAGPY ([4]; 0.1250 kg/ha) | herbicidal effect rating, SAGPY ([4]; 0.2500 kg/ha) | herbicidal rating CHEAL ([5]; rate 0.0156 kg/ha) | herbicidal rating SETVI (SETVI (Foxtail, Green); rate 0.0625 kg/ha) | herbicidal effect rating, CYPIR (CYPIR (Rice Flatsedge); 0.0313 kg/ha) | herbicidal effect rating, CYPIR (CYPIR (Rice Flatsedge); 0.0625 kg/ha)
4.5: herbicidal rating GLXMAW ([2]; rate 0.0156 kg/ha)
3.0: herbicidal effect rating, SAGPY ([4]; 0.0625 kg/ha) | herbicidal rating CASOB (CASOB (Sicklepod) [6]; rate 0.0156 kg/ha) | herbicidal rating CASOB (CASOB (Sicklepod) [6]; rate 0.0313 kg/ha) | herbicidal rating CASOB (CASOB (Sicklepod) [6]; rate 0.0625 kg/ha) | herbicidal rating ORYSAT (ORYSAT (Rice, Tebonnet); rate 0.0313 kg/ha) | herbicidal rating ORYSAT (ORYSAT (Rice, Tebonnet); rate 0.0625 kg/ha) | herbicidal rating ECHCG (ECHCG (Barnyardgrass); rate 0.0313 kg/ha) | herbicidal rating ECHCG (ECHCG (Barnyardgrass); rate 0.0625 kg/ha)
6.0: herbicidal effect rating, CYPIR (CYPIR (Rice Flatsedge); 0.1250 kg/ha)
